Consider 13 compounds from ChEMBL document CHEMBL1201862, “PubChem BioAssay data set” (2004).

Molecules are shown by their SMILES.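 Following 48 hours of exposure in 96-well plates, responses at five concentrations were used to interpolate endpoints linearly. GI50 is the concentration that inhibits growth by half.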 Active and inactive are the calls of the source. Rule as the data show it: active = GI50 up to about 1.1 µM and inactive = higher. Where a SMILES comes first, the peptide text is derived from it. The star is where a group is joined. Boc = CC(C)(C)OC(=O)*

Assay in all cases: NCI anticancer screen, dose series, 48 h
Assay [1] relates to LOX IMVI.
Assay [2] concerns SNB-75.
Assay [3] deals with SK-OV-3.
Assay [4] relates to ACHN.
In assay [5] the test system is A549.
Assay [6] has as its system OVCAR-4.
The subject of assay [7] is MOLT-4.
Assay [8] has as its system UACC-257.
Assay [9] deals with UACC-62.
Assay [10] has as its system CCRF-CEM.
Assay [11] has as its system HCT-15.
Assay [12] deals with NCI-H460.
The test system of assay [13] is Malme-3M.
The subject of assay [14] is EKVX.
For assay [15], the system named is U-251.
The subject of assay [16] is SK-MEL-5.
The test system of assay [17] is K562.
Assay [18] has as its system RPMI-8226.
Assay [19] concerns HL-60.

In the case of `CC(=O)OC1/C=C(\C)C(OC(C)=O)C/C=C(/C)CCC2C(/C=C/C1=O)C2(C)C` (centres undefined), the GI50 in [1] was > 100 µM (inactive); in assay [2] it was 31.2 µM (inactive); in assay [3], > 100 µM (inactive); in assay [4], > 100 µM (inactive); in [5], > 100 µM (inactive); in assay [6] it was > 100 µM (inactive). Moreover, the GI50 in assay [7] was > 100 µM (inactive); in assay [8], > 100 µM (inactive); in [9], > 100 µM (inactive); in assay [10] it was > 100 µM (inactive); in assay [11], greater than 100 µM; in assay [12], > 100 µM (inactive). For the same compound, the GI50 in [13] is > 100 µM (inactive); in assay [14], > 100 µM (inactive); in assay [15], > 100 µM (inactive); in assay [16], 92.9 µM (inactive).

On to `C=C1Oc2nc3ccccc3c(=O)n2C1(C)C`, for which the GI50 in assay [1], in assay [3], in [4], in [5], in [6] and in assay [7] was > 100 µM (inactive) throughout. For the same compound, the GI50 in [8] is > 100 µM (inactive); in [9] it was > 100 µM (inactive); in assay [10] it was > 100 µM (inactive); in [11] it was greater than 100 µM; in assay [17], > 100 µM (inactive); in assay [12], > 100 µM (inactive). Moreover, the GI50 in assay [18], in [13], in assay [14], in [15], in assay [16] and in assay [19] was > 100 µM (inactive) throughout.

Consider `COc1ccc2c(c1)OCCC1=C2SCC2(C)CCN=C12` (centres undefined), for which the GI50 was > 100 µM (inactive) in [1]; > 100 µM (inactive) in [2]; > 100 µM (inactive) in assay [3]; > 100 µM (inactive) in [5]; > 100 µM (inactive) in [6]; 52 µM (inactive) in [7]. Also, the GI50 in assay [9] is > 100 µM (inactive); in assay [10], > 100 µM (inactive); in [17] it was 46.2 µM (inactive); in [12], > 100 µM (inactive); in assay [18], > 100 µM (inactive); in assay [15], > 100 µM (inactive). Further, the GI50 in assay [16] is 46.5 µM (inactive); in assay [19], 29 µM (inactive).

Consider `CCOC(=O)CC[C@H](NC(=O)c1nc[nH]c1/N=N/N(C)C)C(=O)OCC`, for which the GI50 in [1], in [3], in [4], in assay [5], in assay [6] and in [7] was > 100 µM (inactive) each time. Moreover, the GI50 was > 100 µM (inactive) in assay [8]; > 100 µM (inactive) in assay [9]; > 100 µM (inactive) in assay [10]; greater than 100 µM in [11]; > 100 µM (inactive) in assay [17]; > 100 µM (inactive) in [12]. Also, the GI50 in assay [18], in assay [13], in assay [14], in assay [15], in assay [16] and in assay [19] was > 100 µM (inactive) throughout.

Consider `O=P1(O)c2ccccc2CS(=O)(=O)Cc2ccccc21`, for which the GI50 in assay [1], in assay [3], in assay [4], in assay [5], in [6] and in [7] was > 100 µM (inactive) each time. Besides, the GI50 is > 100 µM (inactive) in assay [8]; > 100 µM (inactive) in assay [9]; > 100 µM (inactive) in assay [10]; greater than 100 µM in assay [11]; > 100 µM (inactive) in assay [17]; > 100 µM (inactive) in [12]. Besides, the GI50 in assay [14], in assay [15], in [16] and in [19] was > 100 µM (inactive) in each case.

Consider `COc1ccc(/N=C\c2cc(OC)c(OC)c(OC)c2)cc1`, for which the GI50 was 17.5 µM (inactive) in [1]; > 100 µM (inactive) in [2]; > 100 µM (inactive) in assay [3]; 94 µM (inactive) in assay [4]; > 100 µM (inactive) in assay [5]; > 100 µM (inactive) in [6]. The GI50 is > 100 µM (inactive) in [7]; > 100 µM (inactive) in assay [8]; 23.9 µM (inactive) in assay [9]; 57.5 µM (inactive) in [10]; 29.2 µM in assay [11]; 33.7 µM (inactive) in assay [17]. Further, the GI50 is 85.9 µM (inactive) in assay [12]; 18.7 µM (inactive) in assay [18]; > 100 µM (inactive) in assay [13]; > 100 µM (inactive) in assay [14]; > 100 µM (inactive) in [15]; > 100 µM (inactive) in [16].

In the case of `COc1ccc(C(C2C(=O)N(C)C(=O)N(C)C2=O)C(F)(F)C(=O)N(C)C)cc1` (centres undefined), the GI50 in assay [1], in assay [2], in [3], in [4], in assay [5] and in assay [6] was > 100 µM (inactive) throughout. The GI50 in assay [8] is > 100 µM (inactive); in assay [9], > 100 µM (inactive); in assay [10] it was > 100 µM (inactive); in assay [11] it was greater than 100 µM; in assay [12], > 100 µM (inactive); in assay [18], > 100 µM (inactive). Besides, the GI50 in assay [13], in assay [14], in assay [15] and in assay [16] was > 100 µM (inactive) throughout.

Turning to `C[C@]12CC[C@H](OC3CCCCO3)CC1=CC[C@@H]1C2CC[C@]2(C)/C(=N/OCCC#N)CCC12` (some centres undefined), the GI50 in assay [1] was 6.38 µM (inactive); in [2], 20.3 µM (inactive); in assay [3], 37.5 µM (inactive); in assay [4], 33.8 µM (inactive); in assay [5], 26.8 µM (inactive); in [6], 18.9 µM (inactive). Moreover, the GI50 in assay [8] is 6.62 µM (inactive); in assay [9], 97.1 µM (inactive); in assay [11], greater than 100 µM; in assay [17] it was 6.95 µM (inactive); in assay [12] it was 15.2 µM (inactive); in assay [18] it was > 100 µM (inactive). For the same compound, the GI50 in assay [13] is > 100 µM (inactive); in assay [14], 19.2 µM (inactive); in [15], 40.4 µM (inactive); in assay [16], 7.74 µM (inactive).

In the case of `C=C1COC(/C=C(\C)CC/C=C(\C)CCl)C1` (centres undefined), the GI50 in [1], in assay [2], in assay [3], in [4], in assay [5] and in [6] was > 100 µM (inactive) each time. Moreover, the GI50 is > 100 µM (inactive) in [7]; > 100 µM (inactive) in assay [9]; > 100 µM (inactive) in [10]; greater than 100 µM in assay [11]; > 100 µM (inactive) in assay [17]; > 100 µM (inactive) in assay [12]. Moreover, the GI50 in assay [18], in [14], in assay [15], in [16] and in assay [19] was > 100 µM (inactive) in each case.

For `COC(=O)c1cc2c(s1)C(=O)c1ccccc1-2`, the GI50 in assay [1], in [2], in [3], in assay [4], in assay [5] and in assay [6] was > 100 µM (inactive) throughout. Moreover, the GI50 in assay [7] was > 100 µM (inactive); in assay [8] it was > 100 µM (inactive); in [9], > 100 µM (inactive); in [10], > 100 µM (inactive); in [11] it was greater than 100 µM; in assay [17], > 100 µM (inactive). In addition, the GI50 in assay [12], in assay [13], in assay [14], in [15], in assay [16] and in [19] was > 100 µM (inactive) in each case.

With `S=C(S)N1CCN(c2ccccc2)CC1`, the GI50 was 32.9 µM (inactive) in assay [1]; > 100 µM (inactive) in assay [2]; > 100 µM (inactive) in assay [4]; > 100 µM (inactive) in assay [5]; > 100 µM (inactive) in [8]; greater than 100 µM in [11]. Moreover, the GI50 in [17] is 52.6 µM (inactive); in assay [18] it was 27.5 µM (inactive); in assay [13], > 100 µM (inactive); in assay [14] it was > 100 µM (inactive); in [15], 48.5 µM (inactive); in assay [16], 20.7 µM (inactive). For the same compound, in assay [19], the GI50 was 9.31 µM (inactive).

`Cc1cnc2nc(-c3ccc4ccccc4c3)cc(O)c2c1`: the GI50 in assay [1] was 0.728 µM (active); in [2], 0.391 µM (active); in assay [3] it was 0.578 µM (active); in [4], 0.658 µM (active); in assay [5], 0.625 µM (active); in assay [6], 0.659 µM (active). The GI50 is 0.431 µM (active) in assay [7]; 0.317 µM (active) in [9]; 0.323 µM (active) in assay [10]; 0.439 µM in [11]; 0.251 µM (active) in assay [17]; 0.305 µM (active) in assay [18].

For the compound `COC(=O)[C@H](Cc1ccc(O)cc1)NC(=O)[C@H](Cc1ccc(O)cc1)NC(=O)OC(C)(C)C` (Boc-Tyr-Tyr-OMe), the GI50 in assay [1], in assay [2], in assay [3], in assay [4], in assay [5] and in assay [8] was > 100 µM (inactive) in each case. In addition, the GI50 is > 100 µM (inactive) in [9]; greater than 100 µM in assay [11]; > 100 µM (inactive) in [12]; > 100 µM (inactive) in assay [13]; > 100 µM (inactive) in assay [14]; 38 µM (inactive) in assay [16].
